Source: EPA's ToxValDB 9.5 (doi:10.2903/j.efsa.2016.4569)
Values after ≈ are worked out from the molar mass of the structure shown.

Assays:
[1] = system: Oncorhynchus mykiss; details: acute; duration: 96 hours; mortality
[2] = system: Rattus norvegicus; details: for LD50: acute, mortality
[3] = system: Tagia sp.; details: for NOEC: chronic/long-term, reproduction; for LC50: acute, mortality
[4] = system: Apis mellifera; details: acute, mortality
[5] = system: Colinus virginianus
[6] = system: Daphnia magna; details: chronic/long-term; duration: 21 days; reproduction
[7] = system: Folsomia candida; details: chronic/long-term; reproduction
[8] = system: Lepomis macrochirus; details: chronic/long-term; other
[9] = system: Oryctolagus sp.; details: chronic; other
[10] = system: Aphidius rhopalosiphi; assay: LR50; higher = less toxic; details: not reported; mortality
[11] = short-term, duration: 28 days, M

| SMILES | LC50 [1] [µg/mL] | NOAEL [2, 11] [mg/kg-day] | NOEC [3] [mg/kg] | LC50 [3] [mg/kg] | also measured |
| --- | --- | --- | --- | --- | --- |
| O=C(O)c1cc(-n2nc(CO)n(C(F)F)c2=O)c(F)cc1Cl | > 100 | 10.1 | 0.056 | – | – |
| Cc1nn(-c2cc(C(=O)O)c(Cl)cc2F)c(=O)n1C(F)F | > 92.5 | 5.4 | – | > 1000 | – |
| Cc1nn(-c2cc(C=CC(=O)O)c(Cl)cc2F)c(=O)n1C(F)F | – | 1 | – | > 500 | – |
| Cc1nn(-c2cc(CCC(=O)O)c(Cl)cc2F)c(=O)n1C(F)F | – | – | – | > 1000 | NOAEL ([2]; short-term, M): 1.4 mg/kg-day |
| COc1cc(-n2nc(C)n(C(F)F)c2=O)c(F)cc1Cl | > 20.9 | 8.5 | 0.256 | – | – |
| Cc1n[nH]c(=O)n1C(F)F | > 100 | – | – | > 100 | NOAEL ([2]; subchronic, duration: 90 days, M): 0.666 mg/kg-day |
| O=C(O)c1cc(-n2ncn(C(F)F)c2=O)c(F)cc1Cl [3-Desmethyl-F8426-benzoic acid] | – | 5.4 | – | – | – |
| O=C(O)CCc1cc(-n2ncn(C(F)F)c2=O)c(F)cc1Cl [3-Desmethyl-F8426-propionic acid] | – | – | – | – | NOAEL ([2]; short-term, M): 1.4 mg/kg-day |
| O=C(O)CCc1cc(-n2nc(CO)n(C(F)F)c2=O)c(F)cc1Cl [3-Hydroxymethyl-F8426-propionic acid] | – | 1.4 | – | – | – |
| CCOC(=O)C(Cl)Cc1cc(-n2nc(C)n(C(F)F)c2=O)c(F)cc1Cl (configuration not stated) [Carfentrazone-ethyl] | 1.6 (≈ 3.88 µM) | – | 8 | > 410 | LD50 ([4]; dermal): > 81 µg/piece; LD50 ([4]; oral, unspecified): > 81 µg/piece; LD50 ([5]; acute, oral, mortality): > 2250 mg/kg-day; NOEC ([5]; chronic): 94 mg/kg-day; NOEC [6]: 0.22 mg/L; NOEC [7]: 0.975 mg/kg; NOEC [8]: 0.0187 mg/L; NOAEL [9]: 40 mg/kg-day; LD50 ([2]; F): > 5140 mg/kg-day; LD50 ([2]; oral, M): > 5000 mg/kg; NOAEL ([2]; subchronic, duration: 90 days, oral, hematological): 58 mg/kg-day; LR50 [10]: 23.5 g/ha |
| Cc1nn(-c2cc(CC(Cl)C(=O)O)c(Cl)cc2F)c(=O)n1C(F)F (configuration not stated) [Carfentrazone] | > 99.2 | – | – | > 1000 | – |
| Cc1nn(-c2cc(CC(C(=O)O)S(=O)(=O)O)c(Cl)cc2F)c(=O)n1C(F)F (stereo not drawn) [F8426-alpha-Sulfodeschloropropionic acid] | > 100 | 0.359 | – | > 100 | – |
| O=C(O)c1cc(-n2nc(C(=O)O)n(C(F)F)c2=O)c(F)cc1Cl [F8426-dicarboxylic acid] | > 100 | 12.1 | 0.152 | – | – |
